Data from the supplement of paper PMC10307832.

Experiments:
Test in all cases: relative viability (nuclei count vs DMSO), 5 days (fraction); higher = more cells survive
IPA-3 + Vorinostat = compound: C1=CC=C2C(=C1)C=CC(=C2SSC3=C(C=CC4=CC=CC=C43)O)O [IPA-3] + O=C(CCCCCCC(=O)Nc1ccccc1)NO [Vorinostat] (partner 1 µM)
How it was run: (§1)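 Lung cancer cell lines in 1536-well plates got either a single drug or a fixed anchor-drug dose together with five library-drug doses (not always all listed) in √10 steps, by pin tool, on the day after seeding. Nuclei were counted after 5 days, and relative viability is the treated-to-vehicle ratio of nuclei counts. Values are medians of duplicate plates.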

IPA-3 + Crizotinib = compound: C1=CC=C2C(=C1)C=CC(=C2SSC3=C(C=CC4=CC=CC=C43)O)O [IPA-3] + C[C@@H](Oc1cc(-c2cnn(C3CCNCC3)c2)cnc1N)c1c(Cl)ccc(F)c1Cl [Crizotinib] (partner 1 µM)
How it was run: as §1

RAF265 + Olaparib = compound: Cn1c(Nc2ccc(C(F)(F)F)cc2)nc2cc(Oc3ccnc(-c4ncc(C(F)(F)F)[nH]4)c3)ccc21 [RAF265] + O=C(c1cc(Cc2n[nH]c(=O)c3ccccc23)ccc1F)N1CCN(C(=O)C2CC2)CC1 [Olaparib] (partner 8 µM)
How it was run: as §1

RAF265 + Navitoclax = compound: Cn1c(Nc2ccc(C(F)(F)F)cc2)nc2cc(Oc3ccnc(-c4ncc(C(F)(F)F)[nH]4)c3)ccc21 [RAF265] + CC1(C)CCC(c2ccc(Cl)cc2)=C(CN2CCN(c3ccc(C(=O)NS(=O)(=O)c4ccc(N[C@H](CCN5CCOCC5)CSc5ccccc5)c(S(=O)(=O)C(F)(F)F)c4)cc3)CC2)C1 [Navitoclax] (partner 0.5 µM)
How it was run: as §1

| Cell Line | relative viability (IPA-3 + Vorinostat; first compound 0.2 µM) | relative viability (IPA-3 + Vorinostat; first compound 0.6325 µM) | relative viability (IPA-3 + Vorinostat; first compound 2 µM) | relative viability (IPA-3 + Vorinostat; first compound 6.325 µM) | relative viability (IPA-3 + Vorinostat; first compound 20 µM) | relative viability (IPA-3 + Crizotinib; first compound 0.2 µM) | relative viability (IPA-3 + Crizotinib; first compound 0.6325 µM) | relative viability (IPA-3 + Crizotinib; first compound 2 µM) | relative viability (IPA-3 + Crizotinib; first compound 6.325 µM) | relative viability (IPA-3 + Crizotinib; first compound 20 µM) | relative viability (RAF265 + Olaparib; first compound 0.01 µM) | relative viability (RAF265 + Olaparib; first compound 0.03162 µM) | relative viability (RAF265 + Olaparib; first compound 0.1 µM) | relative viability (RAF265 + Olaparib; first compound 0.3162 µM) | relative viability (RAF265 + Olaparib; first compound 1 µM) | relative viability (RAF265 + Navitoclax; first compound 0.01 µM) | relative viability (RAF265 + Navitoclax; first compound 0.03162 µM) | relative viability (RAF265 + Navitoclax; first compound 0.1 µM) | relative viability (RAF265 + Navitoclax; first compound 0.3162 µM) | relative viability (RAF265 + Navitoclax; first compound 1 µM) |
| --- | --- | --- | --- | --- | --- | --- | --- | --- | --- | --- | --- | --- | --- | --- | --- | --- | --- | --- | --- | --- |
| LOU-NH91 | 0.946 | 0.804 | 0.902 | 0.87 | 1.08 | 0.723 | 0.757 | 0.809 | 0.728 | 0.801 | 1.02 | 0.831 | 0.9 | 0.675 | 0.737 | 0.731 | 0.594 | 0.757 | 0.389 | 0.387 |
| NCI-H441 | 0.881 | 0.637 | 0.748 | 0.731 | 0.948 | 0.859 | 0.635 | 0.804 | 0.659 | 0.723 | 0.555 | 0.512 | 0.539 | 0.445 | 0.394 | 0.582 | – | 0.515 | 0.5 | 0.776 |
| NCI-H647 | 0.628 | 0.376 | 0.581 | 0.544 | 0.151 | 1.22 | 1.01 | 0.991 | 0.596 | 0.173 | 0.422 | 0.494 | 0.357 | 0.399 | 0.306 | 1.2 | 0.954 | 0.977 | 0.895 | 0.458 |
| NCI-H1915 | 0.581 | 0.497 | 0.505 | 0.492 | 0.533 | 1.02 | 0.905 | 0.923 | 0.867 | 0.949 | 0.256 | 0.248 | 0.235 | 0.224 | 0.136 | 0.76 | 0.72 | 0.712 | 0.407 | 0.281 |
| NCI-H1734 | 0.922 | 0.761 | 0.799 | 0.726 | 0.638 | 0.745 | 0.648 | 0.71 | 0.703 | 0.698 | 0.627 | 0.574 | 0.575 | 0.511 | 0.344 | 0.886 | 0.656 | 0.825 | 0.628 | 0.348 |
| NCI-H1993 | 1.15 | 0.639 | 0.758 | 0.725 | 0.918 | 0.71 | 0.811 | 0.885 | 0.889 | 0.998 | 1.21 | 1.41 | 1.19 | 1.07 | 0.886 | 1.1 | 0.947 | 1.08 | 0.719 | 0.783 |
| LK-2 | 0.321 | 0.321 | 0.429 | 0.553 | 0.506 | 0.202 | 0.229 | 0.227 | 0.22 | 0.193 | 0.794 | 0.751 | 0.769 | 0.668 | 0.512 | 0.777 | 0.791 | 0.832 | 0.633 | 0.57 |
| HCC-78 | 0.464 | 0.437 | 0.476 | 0.442 | 0.489 | 0.341 | 0.341 | 0.365 | 0.322 | 0.399 | 1 | 0.876 | 1.06 | 0.864 | 0.724 | 0.898 | 0.901 | 0.912 | 0.726 | 0.731 |
| NCI-H2405 | 1.17 | 1.11 | 1.11 | 0.922 | 1.04 | 0.863 | 0.865 | 0.856 | 0.841 | 0.878 | 0.96 | 0.88 | 0.834 | 0.838 | 0.514 | 0.984 | 0.86 | 0.973 | 0.909 | 0.335 |
| HOP-62 | 0.72 | 0.556 | 0.597 | 0.698 | 0.717 | 1.3 | 0.643 | 1.01 | 1.01 | 0.922 | 0.461 | 0.448 | 0.439 | 0.479 | 0.268 | 0.942 | 0.963 | 0.921 | 0.995 | 0.951 |
| BEN | 0.594 | 0.59 | 0.586 | 0.686 | 0.568 | 1.01 | 0.905 | 0.98 | 0.788 | 0.961 | 1.04 | 1.09 | 1.16 | 1.19 | 0.846 | 0.0592 | 0.0731 | 0.0721 | 0.0801 | 0.0649 |
| SW 1573 | 1.05 | 0.655 | 0.865 | 0.958 | 0.536 | 0.802 | 0.814 | 0.933 | 0.872 | 0.811 | 0.474 | 0.388 | 0.304 | 0.28 | 0.248 | 1.23 | 0.984 | 1.04 | 0.89 | 0.389 |
| ChaGo-K-1 | 0.968 | 0.699 | 0.757 | 0.864 | 0.875 | 1.32 | 1.08 | 1.17 | 1.09 | 1.23 | 0.411 | 0.429 | 0.464 | 0.422 | 0.371 | 1.1 | 1 | 1.03 | 1.04 | 0.823 |
| SK-MES-1 | 1.27 | 1.03 | 1.09 | 0.925 | 1.04 | 0.981 | 1 | 1.13 | 0.94 | 0.87 | 0.582 | 0.308 | 0.229 | 0.208 | 0.204 | 1.11 | 1.01 | 1.01 | 0.361 | 0.209 |
| NCI-H1755 | 0.863 | 0.61 | 0.694 | 0.63 | 0.704 | 0.971 | 0.763 | 0.964 | 0.808 | 0.95 | 0.879 | 0.788 | 0.909 | 0.717 | 0.499 | 0.999 | 0.879 | 0.764 | 0.671 | 0.356 |
| NCI-H2023 | 0.866 | 0.681 | 0.789 | 0.699 | 0.839 | 0.714 | 0.58 | 0.809 | 0.735 | 0.893 | 0.491 | 0.452 | 0.544 | 0.524 | 0.374 | 1.09 | 1.02 | 1.06 | 1.09 | 0.908 |
